# Laboratory results published in US20120107836A1, “DEVELOPMENT OF FLUORESCENTLY P-LOOP LABELLED KINASES FOR SCREENING OF INHIBITORS” (priority 2009, published 2012).
# How the values were obtained:
# p38α = target: T1, p38α (Homo sapiens, UniProt Q16539, C119S/C162S/F327L/Y35C); test: Endpoint fluorescence binding measurements with acrylodan-labelled p38α (glycine-rich loop / P-loop labelled, Y35C); conditions: fluorescence response of acrylodan-labelled p38α
# T1 construct: His-tag (N, cleaved yes); made in house; host or cells: E. coli BL21(DE3)
# T1 sequence (Q16539 whole entry Y35C/C119S/C162S/F327L): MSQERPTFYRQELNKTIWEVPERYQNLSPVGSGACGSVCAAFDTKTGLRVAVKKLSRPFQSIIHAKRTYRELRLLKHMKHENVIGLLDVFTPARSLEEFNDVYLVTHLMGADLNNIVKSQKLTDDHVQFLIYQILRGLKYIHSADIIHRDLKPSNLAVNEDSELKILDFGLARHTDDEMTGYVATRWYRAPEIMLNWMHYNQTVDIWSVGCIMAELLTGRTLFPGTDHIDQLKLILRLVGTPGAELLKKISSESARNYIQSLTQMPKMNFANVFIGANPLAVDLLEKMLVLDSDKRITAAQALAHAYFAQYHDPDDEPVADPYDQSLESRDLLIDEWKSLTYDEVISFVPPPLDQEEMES
# Description: For acrylodan-labelled p38α, ratiometric fluorescence values (R=Iλ512/Iλ475) enabled reliable binding curves of detected compounds to be plotted, allowing for direct determination of the Kd of ligand binding. It should be noted that binding modes of detected molecules can initially be assessed in HTS formats by measuring plates from primary and/or secondary screens at different time points. Compounds that change the maximum ratiometric signal or Kd over time are likely to be Type II/III inhibitors. Alternatively, kinetics of the association (kon) and dissociation (koff) of selected compounds can be determined using cuvettes. To determine kon, a mini stir bar was placed in the bottom of each cuvette to ensure rapid mixing as inhibitor was delivered through the injection port located above the cuvette. […] Nearly instantaneous binding kinetics (<5 s) are characteristic of Type I inhibitors, while slower kinetics (>10 s) indicate the slower binding of Type II or Type III inhibitors to the DFG-out conformation. Following binding, koff was determined by adding a 10-fold excess of unlabelled kinase to shift the binding equilibrium away from the labelled kinase. Addition of excess unlabelled kinase causes the inhibitor to redistribute and dissociate from acrylodan-labelled p38α, resulting in a recovery of the fluorescence signal.
# MKK7 = target: T2, MKK7 (Homo sapiens, UniProt O14733, C202S/C260S/C280S); test: Real-time and endpoint fluorescence measurements with glycine-rich loop acrylodan-labelled MKK7 kinase domain; assay type: binding
# T2 sequence (O14733 101-408 C202S/C260S/C280S): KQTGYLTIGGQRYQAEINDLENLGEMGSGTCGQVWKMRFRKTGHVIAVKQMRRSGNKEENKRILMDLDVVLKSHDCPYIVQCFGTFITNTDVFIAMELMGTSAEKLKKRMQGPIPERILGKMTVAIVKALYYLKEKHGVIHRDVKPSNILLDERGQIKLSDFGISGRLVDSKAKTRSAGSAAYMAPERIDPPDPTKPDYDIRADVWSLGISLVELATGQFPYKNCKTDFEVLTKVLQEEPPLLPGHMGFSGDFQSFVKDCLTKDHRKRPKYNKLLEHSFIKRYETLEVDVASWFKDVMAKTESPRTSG
# Description: FIG. 8. Real-time and endpoint fluorescence measurements of a Type II and Type I ligands using glycine-rich loop labelled MKK7. […] Real-time kinetic measurements and detection of binding and dissociation of K252a.
# Therefore, the Kd of a Type I inhibitor (K252a) to P-loop labelled MKK7 was measured. […] FIG. 8C highlights the real-time kinetic measurements and detection of binding and dissociation of K252a.
compound,measurement,setting,value
NC(=O)c1c(OCc2c(F)cc(Br)cc2F)nsc1NC(=O)NCCCCN1CCCC1 [CP547632],detection of ligand binding by the P-loop labelled p38α assay,p38α,detected
COC(=O)[C@@]1(O)C[C@H]2O[C@]1(C)n1c3ccccc3c3c4c(c5c6ccccc6n2c5c31)C(=O)NC4 [K252a],Kd,MKK7,38 nM
same,kinetics of binding and dissociation,"MKK7; real-time measurements, P-loop labelled MKK7",fast
CNC(=O)c1cc(Oc2ccc(NC(=O)Nc3ccc(Cl)c(C(F)(F)F)c3)cc2)ccn1 [sorafenib],detection of ligand binding by P-loop labelled MKK7,"MKK7; negative controls, up to 10 μM",not detected up to 10 uM
